# Test results as given in patent US10703760B2, “Morphic forms of marizomib and uses thereof” (Celgene International II Sàrl, priority 2016, dated 2020).
# Columns and labels:
# Format in all cases: physicochemical
# [1] = Dynamic vapor sorption (DVS) of Sample 4
# Source text: Prior to any testing, Sample 4 was characterized by XRPD, TGA, DSC, 1HNMR, and DVS. The results are given below in Table-8. The Corresponding figure numbers are given in the right hand column.
# [2] = Variable temperature XRPD; details: 25° C. to 160° C.; listed as morphic Form I
# Protocol: Samples run under non-ambient conditions were mounted on a silicon wafer with heat-conducting compound. The sample was then heated to the appropriate temperature at 20° C./min and subsequently held isothermally for 1 minute before data collection was initiated.
# [3] = Cocrystal screen of marizomib
smiles,measurement,setting,value
"C[C@@]12OC(=O)[C@]1([C@@H](O)[C@@H]1C=CCCC1)NC(=O)[C@@H]2CCCl [Sample 4, marizomib]",DVS weight change,[1]; 5-75% RH,+0.039 wt % (5-75% RH)
same,DVS weight change,[1]; 75-95% RH,+1.158 wt % (75-95% RH)
same,DVS weight change,[1]; 95-5% RH,−1.276 wt % (95-5% RH)
same,DVS weight change,[1]; at 5% RH,−0.035 wt % (at 5% RH)
C[C@@]12OC(=O)[C@]1([C@@H](O)[C@@H]1C=CCCC1)NC(=O)[C@@H]2CCCl [marizomib],Morphic form on heating (variable temperature XRPD),[2],stable even at elevated temperatures
same,Cocrystal formation,"[3]; about 117 experiments, 46 coformers/counterions",cocrystal formation did not occur
same,XRPD Results,"[3]; coformer (2-hydroxypropyl)-β-cyclodextrin (1:1), MeOH/acetone, slurry 50° C. 2 days, supernatant decanted, SE, RT",MRZ
same,XRPD Results,"[3]; coformer (2-hydroxypropyl)-β-cyclodextrin (2:1), H2O/ACN, slurry 50° C. 2 days, slurry RT 6 days, SE, RT",MRZ
same,XRPD Results,"[3]; coformer Acetic acid (1:2), acetone, stir, RT, 5 days, cool 2-8° C., 3 days, SE, RT",MRZ
same,XRPD Results,"[3]; coformer Acetic acid (large excess), slurry, RT",MRZ
same,XRPD Results,"[3]; coformer Adenine (1:1), EtOH, slurry, RT, 5 days",MRZ
same,XRPD Results,"[3]; coformer Benzoic acid (1:5), MEK:MIBK (20:80), slurry, RT, 7 days",MRZ
same,XRPD Results,"[3]; coformer Benzoic acid (2:1), EtOAc, SE, RT",MRZ
same,XRPD Results,"[3]; coformer Caffeine (1:3), DMF:anisole (25:75), slurry, RT, 6 days",Caffeine
same,XRPD Results,"[3]; coformer DL-malic acid (1:3), dioxane, slurry 60° C. O/N, stir RT 1 day, FE, RT",MRZ
same,XRPD Results,"[3]; coformer Gentisic acid (1:1), t-BuOH, slurry, 50° C., 2 days",MRZ
same,XRPD Results,"[3]; coformer Gentisic acid (1:5), MEK:IPA (20:80), slurry, RT, 6 days",MRZ
same,XRPD Results,"[3]; coformer Gentisic acid (2:1), ACN, FC, 60° C. to RT",MRZ
same,XRPD Results,"[3]; coformer Glutaric acid (1:3), EtOH, slurry, RT, 6 days",MRZ
same,XRPD Results,"[3]; coformer Glycolic acid (1:2), acetone, SE, RT",MRZ
same,XRPD Results,"[3]; coformer Hydantoin (1:1), 2:1 dioxane:H2O, slurry, RT",MRZ
same,XRPD Results,"[3]; coformer Hydantoin (1:3), H2O/ACN, slurry 60° C. overnight, stir RT 1 day",MRZ
same,XRPD Results,"[3]; coformer L-Serine (1:1), H2O/THF, stir RT 3 days, SE, RT",MRZ
same,XRPD Results,"[3]; coformer L-Serine (1:3), H2O/MeOAc, slurry 60° C. O/N, stir RT 1 day, FE, RT",MRZ
same,XRPD Results,"[3]; coformer L-alanine (1:1), MeOH, slurry 60° C. O/N, slurry RT 1 day",MRZ
same,XRPD Results,"[3]; coformer L-arginine (1:1), HFIPA/dioxane, stir, RT, ~25 minutes",MRZ
same,XRPD Results,"[3]; coformer L-ascorbic acid (1:1), IPA/MeOH at 50° C., FC to RT",MRZ
same,XRPD Results,"[3]; coformer L-cysteine (1:1), grind ~10 minutes, EtOH/dioxane (50/50), temperature cycle RT and 50° C.",MRZ
same,XRPD Results,"[3]; coformer L-lysine (1:1), HFIPA/THF, stir, RT, ~35 minutes",MRZ
same,XRPD Results,"[3]; coformer L-proline (sat'd in IPA at 50° C.), added to MRZ at 50° C., temp cycle (50° C.-RT)",MRZ
same,XRPD Results,"[3]; coformer L-proline sat'd in H2O/MeOH 50/50 v/v, slurry 50° C. 2 days, slurry RT 3 days",L-proline
same,XRPD Results,"[3]; coformer Maleic acid (1:1), nitromethane, SC, 50° C. to RT",MRZ
same,XRPD Results,"[3]; coformer Maleic acid (1:3), 1-PrOH, slurry, RT, 6 days",MRZ
same,XRPD Results,"[3]; coformer Nicotinamide (1:1), ACN, FC, 70° C. to RT",MRZ
same,XRPD Results,"[3]; coformer Orotic acid (2:1), nitromethane, slurry, 50° C., 6 days",MRZ
same,XRPD Results,"[3]; coformer Oxalic acid (1:2), EtOH/MEK, stir, RT, 7 days",MRZ
same,XRPD Results,"[3]; coformer Saccharin (1:1), IPA, FC, 70° C. to RT",MRZ
same,XRPD Results,"[3]; coformer Salicylic acid (1:1), EtOAc:toluene (50:50), FC, 75° C. to RT",MRZ
same,XRPD Results,"[3]; coformer Salicylic acid (1:3), EtOH/MIBK, stir, RT",MRZ
same,XRPD Results,"[3]; coformer Succinic acid (1:2), MeOH/acetone, stir, RT, 5 days",MRZ
same,XRPD Results,"[3]; coformer Thymine (1:1), MeOH/EtOAc, slurry 50° C. 2 days, slurry RT 6 days",Thymine
same,XRPD Results,"[3]; coformer Urea (2:1), EtOAc, FC, 50° C. to RT",MRZ
